Consider 2 molecules from patent US6951751B2, “DNA and amino acid sequences of a tyrosine-inducible tyrosine ammonia lyase enzyme from the yeast Trichosporon cutaneum” (E. I. du Pont de Nemours and Company, priority 2002, dated 2005).

Broadly, the Km is the substrate concentration at which the rate is half of its maximum.

The structures appear in SMILES notation. Where two headings read alike, the source gives them in different places.

Assay type in all cases: biochemical
Test [1] concerns the target T1, Rhodotorula rubra (ATCC No. 889) PAL/TAL enzyme (Rhodotorula mucilaginosa, UniProt P10248).
T1 sequence (P10248 1-713): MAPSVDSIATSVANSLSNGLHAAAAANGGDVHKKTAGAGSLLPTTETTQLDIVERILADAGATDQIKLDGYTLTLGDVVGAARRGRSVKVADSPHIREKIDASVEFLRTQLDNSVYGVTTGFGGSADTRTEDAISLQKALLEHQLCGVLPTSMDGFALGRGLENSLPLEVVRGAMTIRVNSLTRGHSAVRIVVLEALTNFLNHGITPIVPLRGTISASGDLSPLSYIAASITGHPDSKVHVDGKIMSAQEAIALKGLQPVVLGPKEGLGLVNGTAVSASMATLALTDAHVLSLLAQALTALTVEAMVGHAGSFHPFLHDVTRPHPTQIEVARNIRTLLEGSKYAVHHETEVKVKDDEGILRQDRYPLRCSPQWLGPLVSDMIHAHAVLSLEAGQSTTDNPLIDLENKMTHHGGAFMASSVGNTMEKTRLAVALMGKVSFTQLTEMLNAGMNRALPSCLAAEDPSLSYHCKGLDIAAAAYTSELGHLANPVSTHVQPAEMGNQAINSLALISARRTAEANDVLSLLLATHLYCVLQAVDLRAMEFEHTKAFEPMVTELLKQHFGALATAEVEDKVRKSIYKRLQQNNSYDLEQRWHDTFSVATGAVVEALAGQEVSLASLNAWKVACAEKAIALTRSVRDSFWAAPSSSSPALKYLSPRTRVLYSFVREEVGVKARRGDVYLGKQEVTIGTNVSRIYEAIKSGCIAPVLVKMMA
The experiment in a line: PAL/TAL enzyme kinetics in cell-free extract, R. rubra ATCC 889. As to conditions: Vmax/Km for phenylalanine relative to tyrosine. From the text:
(§1) The yeast strains: Rhodotorula rubra (ATCC No. 889), Saccharomycopsis fibuligera (ATCC No. 2080), Rhodosporidium toruloides (ATCC No. 10788), Sporidobolus pararoseus (ATCC No. 11386), Sporidiobolus ruinenii (ATCC No. 20489), Rhodotorula graminis (ATCC No. 20804), Rhodotorula minuta (ATCC No. 32769), Trichosporon cutaneum (ATCC No. 46446), and Trichosporon cutaneum (ATCC No. 58094) were obtained from the American Type Culture Collection (ATCC, Manassas, Va.). These yeast strains were streaked out from glycerol stock onto nutrient agar plates and grown at 30° C. Single colonies were then selected and transferred to 50 mL of Dagley's medium (Sparnins, et al, J. Bact. 138:425-430 (1979)) supplemented with 0.1 g/L of tyrosine, phenylalanine or succinate. Alternatively, a minimal media, consisting of 1.61 g/L of K2HPO4, 5.55 g/L of KH2PO4, 0.1 g/L MgSO4, 0.01 g/L of biotin, with a pH of 6.2 and supplemented with 0.5 g/L of tyrosine, was used. […]
(§2) Protein concentrations were determined using the Bradford method (Anal. Biochem. 72:248-254 (1976)). The Coomassie solution was mixed with varying amounts of the cell free extracts and the OD at 595 nm was measured.
(§3) For PAL activity, cinnamate formation was monitored at 290 nm using a molar extinction coefficient of 9000 cm-1. […] For TAL activity, PHCA formation was monitored at 315 nm (extinction coefficient of 10,000 cm-1). […]

For test [2], the system named is Saccharomycopsis fibuligera (ATCC No. 2080) PAL/TAL enzyme. As to the kind of experiment: PAL/TAL enzyme kinetics in cell-free extract, S. fibuligera ATCC 2080.
Description: (§4) The yeast strains: Rhodotorula rubra (ATCC No. 889), Saccharomycopsis fibuligera (ATCC No. 2080), Rhodosporidium toruloides (ATCC No. 10788), Sporidobolus pararoseus (ATCC No. 11386), Sporidiobolus ruinenii (ATCC No. 20489), Rhodotorula graminis (ATCC No. 20804), Rhodotorula minuta (ATCC No. 32769), Trichosporon cutaneum (ATCC No. 46446), and Trichosporon cutaneum (ATCC No. 58094) were obtained from the American Type Culture Collection (ATCC, Manassas, Va.). These yeast strains were streaked out from glycerol stock onto nutrient agar plates and grown at 30° C. Single colonies were then selected and transferred to 50 mL of Dagley's medium (Sparnins, et al, J. Bact. 138:425-430 (1979)) supplemented with 0.1 g/L of tyrosine, phenylalanine or succinate. Alternatively, a minimal media, consisting of 1.61 g/L of K2HPO4, 5.55 g/L of KH2PO4, 0.1 g/L MgSO4, 0.01 g/L of biotin, with a pH of 6.2 and supplemented with 0.5 g/L of tyrosine, was used. The cells were grown up at 30° C. on a shaker at ˜250 rpm to an OD between 1.0 and 2.0 at 600 nm. The cells were then pelleted by centrifugation and resuspended in 1.0 mL of 50 mM Tris-HCl buffer, pH 8.5.
(§5) The cells were washed and then resuspended in 50 mM Tris-HCl buffer, pH 8.5, containing 1.0 μg/mL of both leupeptin and pepstatin A, 0.5 mM of PMSF (phenylmethylsulfonyl fluoride) and a small amount of DNase. The cells were then passed twice through a French Pressure Cell at 18,000 psi and the debris was removed by centrifugation at 38,720×g for 20 min at 4° C. The supernatant was then used as the crude cell free extract for enzyme assays.
as §2
(§6) For PAL activity, cinnamate formation was monitored at 290 nm using a molar extinction coefficient of 9000 cm-1. One unit of activity deaminates 1.0 μmol of phenylalanine to cinnamate in one min. For TAL activity, PHCA formation was monitored at 315 nm (extinction coefficient of 10,000 cm-1). One unit of activity deaminates 1.0 μmol of tyrosine to PHCA in one min.

Test [3] concerns the target T2, R. glutinis (Rhodosporidium toruloides, ATCC No. 10788) PAL/TAL enzyme (Rhodotorula toruloides, UniProt P11544).
T2 sequence (P11544 1-716): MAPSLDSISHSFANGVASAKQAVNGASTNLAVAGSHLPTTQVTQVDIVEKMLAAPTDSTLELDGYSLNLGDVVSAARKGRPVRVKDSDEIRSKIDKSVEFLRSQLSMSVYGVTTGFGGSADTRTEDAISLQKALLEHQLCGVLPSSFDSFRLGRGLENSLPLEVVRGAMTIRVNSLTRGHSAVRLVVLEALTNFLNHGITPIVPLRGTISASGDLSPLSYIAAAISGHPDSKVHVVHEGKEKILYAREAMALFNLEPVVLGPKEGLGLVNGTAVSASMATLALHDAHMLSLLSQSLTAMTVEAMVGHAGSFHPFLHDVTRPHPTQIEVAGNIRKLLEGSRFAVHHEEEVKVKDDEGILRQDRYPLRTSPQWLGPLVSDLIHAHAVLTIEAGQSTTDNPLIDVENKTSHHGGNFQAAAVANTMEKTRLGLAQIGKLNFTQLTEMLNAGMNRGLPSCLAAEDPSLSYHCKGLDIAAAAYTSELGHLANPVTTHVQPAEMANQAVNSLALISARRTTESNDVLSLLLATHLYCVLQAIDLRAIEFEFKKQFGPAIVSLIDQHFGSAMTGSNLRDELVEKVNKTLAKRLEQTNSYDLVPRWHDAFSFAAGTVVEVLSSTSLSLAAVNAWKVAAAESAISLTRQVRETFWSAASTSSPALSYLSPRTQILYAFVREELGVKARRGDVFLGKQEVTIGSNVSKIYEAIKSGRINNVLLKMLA
As to the kind of experiment: PAL/TAL enzyme kinetics in cell-free extract, R. glutinis (R. toruloides) ATCC 10788. Particulars: Vmax/Km for phenylalanine relative to tyrosine.
Description: as §1, §2, §3

Test [4] concerns Sporidobolus pararoseus (ATCC No. 11386) PAL/TAL enzyme. As to the kind of experiment: PAL/TAL enzyme kinetics in cell-free extract, S. pararoseus ATCC 11386.
Description: as §4, §5, §2, §6

Test [5] concerns Sporidiobolus ruinenii (ATCC No. 20489) PAL/TAL enzyme. As to the kind of experiment: PAL/TAL enzyme kinetics in cell-free extract, S. ruinenii ATCC 20489.
Description: as §4, §5, §2, §6

Test [6] concerns Rhodotorula graminis (ATCC No. 20804) PAL/TAL enzyme. As to the kind of experiment: PAL/TAL enzyme kinetics in cell-free extract, R. graminis ATCC 20804.
Description: as §4, §5, §2, §6

Test [7] relates to Rhodotorula minuta (ATCC No. 32769) PAL/TAL enzyme. The experiment in a line: PAL/TAL enzyme kinetics in cell-free extract, R. minuta ATCC 32769.
Description: as §4, §5, §2, §6

Test [8] relates to Trichosporon cutaneum (ATCC No. 46446) PAL/TAL enzyme. The experiment in a line: PAL/TAL enzyme kinetics in cell-free extract, T. cutaneum ATCC 46446.
Description: as §4, §5, §2, §6

Test [9] deals with Trichosporon cutaneum (ATCC No. 58094) tyrosine ammonia lyase (TAL), wild type, SEQ ID NO:25. As to the kind of experiment: PAL/TAL enzyme kinetics in cell-free extract, T. cutaneum ATCC 58094.
Description: as §4, §5, §2, §6

The mark [10] stands for this setting: Vmax/Km for phenylalanine relative to tyrosine.
[11] abbreviates: apparent, phenylalanine as substrate, cell-free extract, pH 8.5.
The mark [12] stands for this setting: apparent, phenylalanine as substrate, cell-free extract, pH 8.5, read-out: Km (PAL).
The mark [13] stands for this setting: apparent, tyrosine as substrate, cell-free extract, pH 8.5.
The mark [14] stands for this setting: apparent, tyrosine as substrate, cell-free extract, pH 8.5, read-out: Km (TAL).

Consider `N[C@@H](Cc1ccccc1)C(=O)O` [L-phenylalanine], for which the “Ratio PAL/TAL” value in test [1] stood at 2.52; in [2] (setting [10]) it was 1.74; in test [3] it was 2.20; in [4] (setting [10]), 3.55; in test [5] (setting [10]), 4.09; in [6] (setting [10]) it was 1.87. The “Ratio PAL/TAL” value in [7] (setting [10]) is reported as 2.79; in [8] (setting [10]), 2.64; in test [9] (setting [10]), 0.80. The “Vmax (PAL)” value is reported as 0.011 U/mg in [2] (setting [11]); 0.179 U/mg in test [4] (setting [11]); 0.024 U/mg in [5] (setting [11]); 0.239 U/mg in [6] (setting [11]); 0.083 U/mg in test [7] (setting [11]); 0.128 U/mg in [8] (setting [11]). Also, in test [9] (setting [11]), the “Vmax (PAL)” value was determined as 0.777 U/mg. Also, the Km in [2] (setting [12]) was determined as 467 µM; in [4] (setting [12]) it was 507 µM; in test [5] (setting [12]), 389 µM; in test [6] (setting [12]), 448 µM; in test [7] (setting [12]) it was 584 µM; in [8] (setting [12]) it was 49600 µM. Also, in test [9] (setting [12]), the Km was 2330 µM.

Consider `N[C@@H](Cc1ccc(O)cc1)C(=O)O` [L-tyrosine], for which the “Vmax (TAL)” value in test [2] (setting [13]) is listed as 0.002 U/mg; in test [4] (setting [13]), 0.033 U/mg; in test [5] (setting [13]), 0.004 U/mg; in test [6] (setting [13]), 0.044 U/mg; in [7] (setting [13]) it was 0.011 U/mg; in test [8] (setting [13]), 0.013 U/mg. The Km in test [2] (setting [14]) is 156 µM; in test [4] (setting [14]), 327 µM; in [5] (setting [14]), 264 µM; in [6] (setting [14]) it was 154 µM; in [7] (setting [14]), 212 µM; in test [8] (setting [14]), 13100 µM. For the same molecule, the Km in test [9] (setting [14]) was determined as 431 µM.
